Values joined by “and” are separate entries in the source; they are usually repeats but may differ in a detail not shown here. Equal entries are not always repeated. Inconclusive results and toxic doses are left out.

The results in this text go back to PubChem BioAssay AID330 (DTP/NCI, 2004).

The subject of this experiment is P388 leukemia ip, CD2F1 mice, survival T/C. In words: NCI In Vivo Anticancer Drug Screen. Data for tumor model P388 Leukemia (intraperitoneal) in CD2F1 (CDF1) mice. Particulars: endpoint: median survival time, higher = longer survival. In a few lines: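 Mice carrying the transplanted tumor received test compound or vehicle. Survival was recorded in each group, and the value is the treated-group measurement divided by that of the vehicle-treated control group.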

Setting [1] is: dose: 100.0 mg/kg/injection, schedule: Q04DX003 (ip), vehicle: saline with Tween-80.
Setting [2] is: dose: 200.0 mg/kg/injection, schedule: Q04DX003 (ip), vehicle: saline with Tween-80.
Where [3] appears, read: dose: 400.0 mg/kg/injection, schedule: Q04DX003 (ip), vehicle: saline with Tween-80.
[4] abbreviates: dose: 50.0 mg/kg/injection, schedule: Q01DX009 (ip), vehicle: saline with Tween-80.
The mark [5] stands for this setting: dose: 100.0 mg/kg/injection, schedule: Q01DX009 (ip), vehicle: saline with Tween-80.
Where [6] appears, read: dose: 200.0 mg/kg/injection, schedule: Q01DX009 (ip), vehicle: saline with Tween-80.
The mark [7] stands for this setting: dose: 100.0 mg/kg/injection, schedule: Q01DX001 (ip), vehicle: saline with Tween-80.
The mark [8] stands for this setting: dose: 200.0 mg/kg/injection, schedule: Q01DX001 (ip), vehicle: saline with Tween-80.
Setting [9] is: dose: 100.0 mg/kg/injection, schedule: Q04DX003 (ip), vehicle: saline.
Where [10] appears, read: dose: 12.5 mg/kg/injection, schedule: Q04DX003 (ip), vehicle: saline.
Where [11] appears, read: dose: 25.0 mg/kg/injection, schedule: Q04DX003 (ip), vehicle: saline.
Setting [12] is: dose: 50.0 mg/kg/injection, schedule: Q04DX003 (ip), vehicle: saline.
Where [13] appears, read: dose: 12.5 mg/kg/injection, schedule: Q01DX005 (ip), vehicle: Klucel (hydroxypropylcellulose) (HPC).
The mark [14] stands for this setting: dose: 25.0 mg/kg/injection, schedule: Q01DX005 (ip), vehicle: Klucel (hydroxypropylcellulose) (HPC).
Where [15] appears, read: dose: 200.0 mg/kg/injection, schedule: Q01DX005 (ip), vehicle: saline with Tween-80.
The mark [16] stands for this setting: dose: 50.0 mg/kg/injection, schedule: Q01DX005 (ip), vehicle: Klucel (hydroxypropylcellulose) (HPC).

For the compound `CN(C)CCC(C#N)(CCC1CCCCC1)c1ccccc1` (stereo unspecified), the T/C was 103 % of control (dose: 10.0 mg/kg/injection, schedule: Q01DX009 (ip), vehicle: saline); 104 % of control (dose: 20.0 mg/kg/injection, schedule: Q01DX009 (ip), vehicle: saline); 103 % of control (dose: 40.0 mg/kg/injection, schedule: Q01DX009 (ip), vehicle: saline).
As to `Cc1ccc(CNc2cccnc2)cc1`, the T/C under setting [1] was 104 % of control, the T/C under setting [2] was 95 % of control and the T/C under setting [3] was 90 % of control.
In the case of `COc1ccc(Nc2c3ccccc3nc3ccccc23)cc1`, the T/C reads like this: (dose: 12.5 mg/kg/injection, schedule: Q01DX009 (ip), vehicle: saline with Tween-80) 111 % of control; under setting [4], 151 % of control; under setting [5], 109 % of control.
For the compound `CCOc1ccc(C(CC(=O)O)CC(=O)N(CCCl)CCCl)cc1` (stereo unspecified), the T/C was 101 % of control (dose: 100.0 mg/kg/injection, schedule: Q04DX003 (ip), vehicle: suspension in saline); 102 % of control (dose: 200.0 mg/kg/injection, schedule: Q04DX003 (ip), vehicle: suspension in saline); 105 % of control (dose: 400.0 mg/kg/injection, schedule: Q04DX003 (ip), vehicle: suspension in saline).
On to `CCCC(C)C1(CC)C(=O)N(CCCl)C(=O)N(CCCl)C1=O` (stereo unspecified), for which the T/C was 93 % of control under setting [4], 99 % of control under setting [5] and 93 % of control under setting [6].
Turning to `COc1cc(/C=N\NC(=O)c2cccc(Cl)c2)ccc1N(CCCl)CCCl`, the T/C was 163 % of control under setting [2]; 154 % of control (dose: 264.0 mg/kg/injection, schedule: Q04DX003 (ip), vehicle: saline with Tween-80); 172 % of control and 195 % of control under setting [3]; 154 % of control (dose: 600.0 mg/kg/injection, schedule: Q04DX003 (ip), vehicle: saline with Tween-80).
On to `Cc1cccnc1-n1c(N)cc(=O)[nH]c1=S`, for which the T/C (dose: 50.0 mg/kg/injection, schedule: Q01DX001 (ip), vehicle: saline with Tween-80) was 100 % of control; the T/C under setting [7] was 100 % of control; the T/C under setting [8] is 86 % of control.
With `CN1C(Cc2ccccc2)N(S(=O)(=O)C2C=CC=CC=C2)CC1(C)C` (stereo unspecified), the T/C reads like this: under setting [9], 101 % of control; (dose: 200.0 mg/kg/injection, schedule: Q04DX003 (ip), vehicle: saline) 99 % of control; (dose: 400.0 mg/kg/injection, schedule: Q04DX003 (ip), vehicle: saline) 93 % of control.
As to `CN(C)CCCOC1=Nc2ccccc2O/C1=C/c1ccccc1`, the T/C reads like this: under setting [10], 98 % of control; under setting [11], 94 % of control; under setting [12], 97 % of control; under setting [9], 97 % of control.
In the case of `COc1cc2c(cc1O)Cc1c-2[n+](C)cc2cc(OC)c(OC)cc12`, the T/C runs as follows: (dose: 6.25 mg/kg/injection, schedule: Q01DX005 (ip), vehicle: Klucel (hydroxypropylcellulose) (HPC)) 117 % of control; under setting [13], 109 % of control; under setting [14], 115 % of control; (dose: 100.0 mg/kg/injection, schedule: Q04DX002 (ip), vehicle: Klucel (hydroxypropylcellulose) (HPC)) 119 % of control.
On to `CC(C#N)C(N)=O` (stereo unspecified), for which the T/C runs as follows: under setting [10], 100 % of control; under setting [11], 105 % of control; under setting [12], 110 % of control.
Take `O=C1OC2C(O)COC2(N=Nc2ccc(Cl)cc2)/C1=N/Nc1ccccc1` (stereo unspecified): the T/C was 104 % of control (dose: 6.25 mg/kg/injection, schedule: Q01DX005 (ip), vehicle: saline with Tween-80); 93 % of control (dose: 12.5 mg/kg/injection, schedule: Q01DX005 (ip), vehicle: saline with Tween-80); 89 % of control (dose: 25.0 mg/kg/injection, schedule: Q01DX005 (ip), vehicle: saline with Tween-80); 90 % of control under setting [15].
As for `O=C(OCCN1C(=O)C2C3C=CC(C3)C2C1=O)C1C2C=CC(C2)C1C(=O)OCCN1C(=O)C2C3C=CC(C3)C2C1=O` (stereo unspecified), the T/C is 100 % of control (dose: 50.0 mg/kg/injection, schedule: Q01DX005 (ip), vehicle: saline + Tween-80 + alcohol); 105 % of control (dose: 100.0 mg/kg/injection, schedule: Q01DX005 (ip), vehicle: saline + Tween-80 + alcohol); 105 % of control (dose: 200.0 mg/kg/injection, schedule: Q01DX005 (ip), vehicle: saline + Tween-80 + alcohol).
For the compound `CCCc1cc(=O)n(-c2ccc([N+](=O)[O-])cn2)c(=S)[nH]1`, the T/C by setting is: under setting [13], 95 % of control; under setting [14], 106 % of control; under setting [16], 101 % of control and 116 % of control.
For `CC(CCCCCCCC1CC(OS(=O)(=O)O)CCCCCCCCCCCC(OS(=O)(=O)O)CC(OS(=O)(=O)O)CCCCCCCCCCCCCC(=O)O1)OS(=O)(=O)O` (stereo unspecified) (tested in a mixture with another compound), the T/C runs as follows: (dose: 25.0 micrograms/kg/injection, schedule: Q01DX005 (ip), vehicle: Klucel (hydroxypropylcellulose) (HPC)) 98 % of control; (dose: 50.0 micrograms/kg/injection, schedule: Q01DX005 (ip), vehicle: Klucel (hydroxypropylcellulose) (HPC)) 103 % of control; (dose: 100.0 micrograms/kg/injection, schedule: Q01DX005 (ip), vehicle: Klucel (hydroxypropylcellulose) (HPC)) 97 % of control; (dose: 200.0 micrograms/kg/injection, schedule: Q01DX005 (ip), vehicle: Klucel (hydroxypropylcellulose) (HPC)) 97 % of control.
Consider `O=c1c2ccccc2c2ccccc2n1O`, for which the T/C runs as follows: (dose: 25.0 mg/kg/injection, schedule: Q04DX003 (ip), vehicle: saline with Tween-80) 99 % of control; (dose: 50.0 mg/kg/injection, schedule: Q04DX003 (ip), vehicle: saline with Tween-80) 99 % of control; under setting [1], 97 % of control; under setting [2], 97 % of control.
Consider `CCc1ccc2c(c1)C(=O)c1c(c(-c3ccccc3)c3ccccc3c1-c1ccccc1)C2=O`, for which the T/C (dose: 1.5 mg/kg/injection, schedule: Q01DX005 (ip), vehicle: saline with Tween-80) is 98 % of control; the T/C (dose: 3.0 mg/kg/injection, schedule: Q01DX005 (ip), vehicle: saline with Tween-80) is 95 % of control; the T/C (dose: 6.0 mg/kg/injection, schedule: Q01DX005 (ip), vehicle: saline with Tween-80) is 90 % of control; the T/C (dose: 100.0 mg/kg/injection, schedule: Q01DX005 (ip), vehicle: saline with Tween-80) was 92 % of control; the T/C under setting [15] was 92 % of control.
Take `Cc1oc2c(c(=O)c1C)CN(Cc1ccccc1)CC2`: the T/C was 100 % of control under setting [7]; 100 % of control under setting [8]; 99 % of control (dose: 400.0 mg/kg/injection, schedule: Q01DX001 (ip), vehicle: saline with Tween-80).
As to `CCOC(=O)C1C(O)CC2c3ccccc3-c3ccccc3C21` (stereo unspecified), the T/C runs as follows: (dose: 60.0 mg/kg/injection, schedule: Q01DX005 (ip), vehicle: saline with Tween-80) 87 % of control; (dose: 120.0 mg/kg/injection, schedule: Q01DX005 (ip), vehicle: saline with Tween-80) 87 % of control.
On to `C=C(C)C(=NC(C)C)Nc1ccccc1Cl`, for which the T/C is, setting by setting: under setting [16], 92 % of control and 108 % of control; (dose: 100.0 mg/kg/injection, schedule: Q01DX005 (ip), vehicle: Klucel (hydroxypropylcellulose) (HPC)) 92 % of control and 107 % of control; (dose: 200.0 mg/kg/injection, schedule: Q01DX005 (ip), vehicle: Klucel (hydroxypropylcellulose) (HPC)) 98 % of control.
Turning to `CN1C(=O)N/C(=C2/CCOC2=O)C1=O`, the T/C runs as follows: under setting [4], 106 % of control; under setting [5], 88 % of control; under setting [6], 98 % of control.
For `COc1ccc(C(CC(=O)O)c2cc3c(cc2OC)OCO3)cc1` (stereo unspecified), the T/C by setting is: (dose: 50.0 mg/kg/injection, schedule: Q01DX005 (ip), vehicle: distilled water + Tween-80) 94 % of control; (dose: 100.0 mg/kg/injection, schedule: Q01DX005 (ip), vehicle: distilled water + Tween-80) 96 % of control; (dose: 200.0 mg/kg/injection, schedule: Q01DX005 (ip), vehicle: distilled water + Tween-80) 90 % of control.
Take `N#CCNCC#N`: the T/C runs as follows: (dose: 100.0 mg/kg/injection, schedule: Q04DX002 (ip), vehicle: saline) 102 % of control; (dose: 200.0 mg/kg/injection, schedule: Q04DX002 (ip), vehicle: saline) 103 % of control; (dose: 400.0 mg/kg/injection, schedule: Q04DX002 (ip), vehicle: saline) 102 % of control.
